From patent US9359451B2, “Methods and compositions for treating trauma-hemorrhage using estrogen and derivatives thereof” (THE UAB RESEARCH FOUNDATION, priority 2012, dated 2016) come the findings set out here.

Entries after “also recorded” stand apart in the source; their conditions may differ.

Test [1] deals with Bax and Bcl-2. Put plainly: Spinal cord injury: Western blot analysis for Bax and Bcl-2. Type of test: in vivo, mouse. The conditions noted are these: 24 h after SCI; ICI 182,780: co-administered with 17β-estradiol. The method, then:
Mice were anaesthetized using chloral hydrate (400 mg/kg body weight) (Genovese 2006). A longitudinal incision was made on the midline of the back, exposing the paravertebral muscles. These muscles were dissected away exposing T5-T8 vertebrae. The spinal cord was exposed via a four-level T6-T7 laminectomy and SCI was produced by extradural compression using an aneurysm clip with a closing force of 24 g. Following surgery, 1 ml of saline was administered subcutaneously in order to replace the blood volume lost during surgery. During the surgery and recovery from anesthesia, the mice were placed on a warm heating pad and covered with a warm towel. […] Food and water were provided to the mice ad libitum. During this time period, the animals' bladders were manually voided twice a day until the mice were able to regain normal bladder function. In all injured groups, the spinal cord was compressed for 1 min. Sham-injured animals were only subjected to laminectomy. […] In the experiments regarding the motor score, the animals from all the experimental groups were observed and treated daily for 9 days after SCI. At different time points (see FIG. 30), the mice (n=10 from each group for each of the 3 time points) were sacrificed in order to evaluate the various parameters as described below. […] After 1 hour, tissue lysates were obtained by centrifugation at 100,000×g for 15 min at 4° C. Protein concentrations were estimated by the Bio-Rad protein assay (Bio-Rad Laboratories, Segrate, Milan, Italy) using BSA as standard. […] The blot was performed by transferring proteins from a slab gel to nitrocellulose membrane at 240 mA for 40 min at room temperature. […] The AffiniPure Goat Anti-Rabbit IgG coupled to peroxidase secondary antibody (1:2000; Jackson Immuno Research, Laboratories, Inc., CA, USA) was incubated for 1 hour at room temperature. Subsequently, the blot was extensively washed with PBS, developed using SuperSignal West Pico chemiluminescence Substrate (PIERCE, Milan, Italy), according to the manufacturer's instructions, and exposed to Kodak X-Omat film (Eastman Kodak Co., Rochester, N.Y.). α-Tubulin protein (Sigma; 1:1000) Western blot was performed to ensure equal sample loading. The protein bands of Bax (23˜kDa), or Bcl-2 (26˜kDa) on x-ray film were scanned and densitometrically analyzed with a model GS-700 imaging densitometer (Bio-Rad Laboratories). To ascertain that blots were loaded with equal amounts of protein lysates, they were also incubated in the presence of the antibody against α-tubulin protein (1:10,000 Sigma-Aldrich Corp.). The densitometric data for Western are normalized for loading control values.
For orientation: In western blotting, separated proteins are transferred to a membrane and probed.

The subject of test [2] is myeloperoxidase (MPO). Put plainly: Spinal cord injury: neutrophil infiltration, MPO activity and MPO staining. Type of test: in vivo, mouse. The conditions noted are these: 24 h after SCI; ICI 182,780: co-administered with 17β-estradiol. The method, then:
Mice were anaesthetized using chloral hydrate (400 mg/kg body weight) (Genovese 2006). A longitudinal incision was made on the midline of the back, exposing the paravertebral muscles. These muscles were dissected away exposing T5-T8 vertebrae. The spinal cord was exposed via a four-level T6-T7 laminectomy and SCI was produced by extradural compression using an aneurysm clip with a closing force of 24 g. Following surgery, 1 ml of saline was administered subcutaneously in order to replace the blood volume lost during surgery. During the surgery and recovery from anesthesia, the mice were placed on a warm heating pad and covered with a warm towel. […] Food and water were provided to the mice ad libitum. During this time period, the animals' bladders were manually voided twice a day until the mice were able to regain normal bladder function. In all injured groups, the spinal cord was compressed for 1 min. Sham-injured animals were only subjected to laminectomy. […] In the experiments regarding the motor score, the animals from all the experimental groups were observed and treated daily for 9 days after SCI. At different time points (see FIG. 30), the mice (n=10 from each group for each of the 3 time points) were sacrificed in order to evaluate the various parameters as described below. […] After deparaffinization, endogenous peroxidase was quenched with 0.3% (v/v) hydrogen peroxide in 60% (v/v) methanol for 30 min. […] Non-specific adsorption was minimized by incubating the section in 2% (v/v) normal goat serum in PBS for 20 min. Endogenous biotin or avidin binding sites were blocked by sequential incubation for 15 min with biotin and avidin (DBA), respectively. […] Sections were washed with PBS, and incubated with secondary antibody. Specific labeling was detected with a biotin-conjugated goat anti-rabbit IgG and avidin-biotin peroxidase complex (DBA) and counterstained with nuclear fast red. To verify the binding specificity for nitrotyrosine, iNOS, COX-2, Bax, and Bcl-2, some sections were also incubated with only the primary antibody (no secondary) or with only the secondary antibody (no primary). […] Immunocytochemistry photographs (n=5) were assessed by densitometry as previously described (Shea 1994) by using Imaging Densitometer (AxioVision, Zeiss, Milan, Italy) and a computer program. Myeloperoxidase (MPO) activity, an indicator of PMN accumulation, was determined as previously described (Mullane 1985) 24 h after SCI. […] The rate of change in absorbance was measured spectrophotometrically at 650 nm. MPO activity was defined as the quantity of enzyme degrading 1 μmol of peroxide per minute at 37° C. and was expressed in milliunits/g of wet tissue.

In test [3] the test system is degenerate neurons. Nature of the test: Traumatic brain injury: Fluro-Jade staining of degenerate neurons. Type of test: in vivo, rat. To be noted: brain cortex or CA 2/3 hippocampus, 24 hours after 1 mg/kg iv given 1 hour after LFP TBI. The source says: As such, the lesser the FJ staining, the greater the neuroprotection. Sections stained with FJ are quantified as FJ positive cells, and are taken from brain cortex or CA 2/3 region of the hippocampus. The groups shown in the graph above are sham+vehicle, sham+E2, TBI+vehicle and TBI+E2.

Take `C[C@]12CC[C@@H]3c4ccc(O)cc4C[C@@H](CCCCCCCCC[S+]([O-])CCCC(F)(F)C(F)(F)F)[C@H]3[C@@H]1CC[C@@H]2O` (stereo partly drawn) [ICI 182,780]: in test [1], the “Bax levels (Western blot)” value is given as “significantly blocked the effect of the 17β-estradiol; also recorded: Bax band is more evident in comparison with the band present in the tissue from 17β-estradiol-treated mice” and the “Bcl-2 expression (Western blot)” value was “significantly blocked the effect of the 17β-estradiol; also recorded: BCL2 band is less evident”. In addition, in test [2], the “MPO activity in spinal cord” value was “significantly blocked the effect of the 17β-estradiol” and the “staining for MPO” value is listed as “significantly blocked the effect of the 17β-estradiol”.

For `C[C@]12CC[C@@H]3c4ccc(O)cc4CC[C@H]3[C@@H]1CC[C@@H]2O` [17β-estradiol], in test [1], the “Bax levels (Western blot)” value was “prevented the SCI-induced Bax expression; also recorded: Bax band disappeared” and the “Bcl-2 expression (Western blot)” value is “significantly reduced the SCI-induced inhibition of Bcl-2 expression; also recorded: Bcl-2 band is more evident”. For the same molecule, the “Fluro-Jade positive cells (neurodegeneration)” value in test [3] was “greater that twofold fewer cells undergoing neurodegeneration”. Besides, in test [2], the “MPO activity in spinal cord” value is “significantly attenuated; also recorded: significantly reduced the SCI-induced increase in MPO activity”; the “staining for MPO” value is “visibly and significantly reduced”.
